# Measurements published in patent US6645911B2, “Synergistic herbicidal mixtures” (BASF Aktiengesellschaft, priority 2000, dated 2003).
# Assays:
# Format in all cases: in vivo
# Stellaria media [1] = assay: Postemergence herbicidal greenhouse evaluation, Test Serie A (Table II, picolinafen/carfentrazone-ethyl); settings: 21 days after treatment
# Experimental: (§1) In the following examples, synergism for two-way combinations is determined by the Colby^1 method, i.e. the expected (or predicted) response of the combination is calculated by taking the product of the observed response for each individual component of the combination when applied alone divided by 100 and subtracting this value from the sum of the observed response for each component when applied alone. Synergism of the combination is then determined by comparing the observed response of the combination to the expected (or predicted) response as calculated from the observed responses of each individual component alone. If the observed response of the combination is greater than the expected (or predicted) response then the combination is said to be synergistic and falls within the definition of synergistic effect as previously defined.
# (§2) Postemergence Herbicidal Greenhouse Evaluations
# (§3) Plant seeds are sown in pots containing a loamy sand soil (0.5 l). The herbicides are applied as single treatments, or in a combination comprising a compound of formula I and a second compound as defined above, after emergence of weeds and crop. The herbicidal performance is assessed as percent damage in comparison to the untreated control plants. The assessment is done 21 days after the treatment. Wheat and barley are treated at the 3-4 leaf stage, the broad-leaf weeds at the 2-4 leaf stage and annual grasses at the 2-3 leaf stage. [formula]
# (§4) For the compound of formula I picolinafen is employed.
# (§5) The damage caused by the chemicals was assessed with reference to a scale from 0 to 100% in comparison with the untreated control plants. 0 means no damage and 100 means compete destruction of the plants.
# Anthimis mixta = assay: Postemergence herbicidal evaluation, Test Serie B, in spring wheat (Table III); settings: weed growth stage 14, test period 14 days
# Experimental: as §1, §5
# (§6) For the post-emergence treatment, the test plants were first grown to a height of 3 to 20 cm, depending on the growth habit, and only then treated. The herbicides were suspended or emulsified in water as the vehicle and sprayed with the aid of finely distributing nozzles.
# (§7) Cinidon-ethyl was formulated as a 20% by weight emulsion concentrate and employed in the spray mixture with addition of that amount of solvent system with which the active ingredient had been applied at the application rates shown in the tables.
# (§8) Picolinofen was formulated as a 10% by weight emulsion concentrate and empolyed in the spray mixture with addition of that amount of solvent system with which the active ingredient had been applied at the rates shown in the tables.
# (§9) The test period extended over 14 days. During this time, the plants were attended, and their responses to the treatments with active ingredients were recorded (Tables III and IV).
# Veronica persicaria = assay: as above; settings: weed growth stage 14, test period 14 days
# Experimental: as §1, §5, §6, §7, §8, §9
# Stellaria media [2] = assay: Postemergence herbicidal evaluation, Test Serie B, in spring barley (Table IV); settings: weed growth stage 22, test period 14 days
# Experimental: as §1, §5
# For the post-emergence treatment, the test plants were first grown to a height of 3 to 20 cm, depending on the growth habit, and only then treated. […]
# as §9
# Alopecuris myosuroides = assay: Postemergence herbicidal greenhouse evaluation, Test Serie A (Table I); settings: 21 days after treatment
# Experimental: as §1, §2, §3, §4, §5
# Galium aparine = assay: as above; settings: 21 days after treatment
# Experimental: as §1, §2, §3, §4, §5
# Lamium purpurium = assay: as above; settings: 21 days after treatment
# Experimental: as §1, §2, §3, §4, §5
# Papaver rhoeas = assay: as above; settings: 21 days after treatment
# Experimental: as §1, §2, §3, §4, §5
# Stellaria media [3] = assay: as above; settings: 21 days after treatment
# Experimental: as §1, §2, §3, §4, §5
# [4] = Picolinafen 0 g/ha, Flufenacet 15 g/ha
# [5] = Picolinafen 0 g/ha, Flufenacet 30 g/ha
# [6] = Picolinafen 0 g/ha, Flufenacet 120 g/ha
# [7] = Picolinafen 30 g/ha, Flufenacet 0 g/ha
# [8] = Picolinafen 60 g/ha, Flufenacet 0 g/ha
# [9] = Picolinafen 15 g/ha, Flufenacet 0 g/ha
smiles,measurement,setting,value
"CCOC(=O)C(Cl)Cc1cc(-n2nc(C)n(C(F)F)c2=O)c(F)cc1Cl (racemic) [Carfentrazone-ethyl, ethyl (RS)-2-chloro-3-[2-chloro-5-(4-difluoromethyl-4,5-dihydro-3-methyl-5-oxo-1H-1,2,4-triazol-1-yl)-4-fluorophenyl]propionate]",% Control OBS,"Stellaria media [1]; Picolinafen 0 g/ha, Carfentrazone-ethyl 3.75 g/ha",0%
same,% Control OBS,"Stellaria media [1]; Picolinafen 0 g/ha, Carfentrazone-ethyl 7.50 g/ha",0%
same,% Control OBS,"Stellaria media [1]; Picolinafen 0 g/ha, Carfentrazone-ethyl 15 g/ha",0%
same,% Control OBS,"Stellaria media [1]; Picolinafen 0 g/ha, Carfentrazone-ethyl 30 g/ha",0%
"CCOC(=O)/C(Cl)=C/c1cc(N2C(=O)C3=C(CCCC3)C2=O)ccc1Cl [Cinidon-ethyl, ethyl (Z)-2-chloro-3-[2-chloro-5-(1,3-dioxo-4,5,6,7-tetrahydroisoindol-2-yl)-phenyl]acrylate]",% Control OBS,Anthimis mixta; Cinidon-ethyl 50 g/ha alone,52%
same,% Control OBS,Veronica persicaria; Cinidon-ethyl 50 g/ha alone,50%
same,% Control OBS,Stellaria media [2]; Cinidon-ethyl 50 g/ha alone,23%
CC(C)N(C(=O)COc1nnc(C(F)(F)F)s1)c1ccc(F)cc1 [Flufenacet],% Control OBS,Alopecuris myosuroides; [4],75%
same,% Control OBS,Galium aparine; [4],40%
same,% Control OBS,Galium aparine; [5],55%
same,% Control OBS,Lamium purpurium; [6],18%
same,% Control OBS,Papaver rhoeas; [4],0%
same,% Control OBS,Papaver rhoeas; [5],0%
same,% Control OBS,Papaver rhoeas; [6],18%
same,% Control OBS,Stellaria media [3]; [5],0%
same,% Control OBS,"Stellaria media [3]; Picolinafen 0 g/ha, Flufenacet 60 g/ha",0%
same,% Control OBS,Stellaria media [3]; [6],0%
"O=C(Nc1ccc(F)cc1)c1cccc(Oc2cccc(C(F)(F)F)c2)n1 [Picolinafen, N-(4-fluorophenyl)-6-(-3-trifluoromethylphenoxy)-pyrid-2-ylcarboxamide]",% Control OBS,Alopecuris myosuroides; [7],20%
same,% Control OBS,Alopecuris myosuroides; [8],43%
same,% Control OBS,"Alopecuris myosuroides; Picolinafen 120 g/ha, Flufenacet 0 g/ha",60%
same,% Control OBS,Galium aparine; [9],78%
same,% Control OBS,Lamium purpurium; [7],15%
same,% Control OBS,Papaver rhoeas; [7],15%
same,% Control OBS,Papaver rhoeas; [8],35%
same,% Control OBS,Stellaria media [3]; [9],53%
same,% Control OBS,Stellaria media [3]; [7],73%
same,% Control OBS,"Stellaria media [1]; Picolinafen 30 g/ha, Carfentrazone-ethyl 0 g/ha",37%
same,% Control OBS,"Stellaria media [1]; Picolinafen 60 g/ha, Carfentrazone-ethyl 0 g/ha",45%
same,% Control OBS,"Stellaria media [1]; Picolinafen 120 g/ha, Carfentrazone-ethyl 0 g/ha",72%
same,% Control OBS,Anthimis mixta; Picolinafen 50 g/ha alone,10%
same,% Control OBS,Veronica persicaria; Picolinafen 50 g/ha alone,10%
same,% Control OBS,Stellaria media [2]; Picolinafen 50 g/ha alone,10%
